{"source": "patent US8263574B2", "about": "“Topical formulations for the treatment of depression with S adenosyl methionine” (priority 2004, dated 2012)", "key": {"[1]": {"test_system": "major depressive disorder", "settings": "cited from earlier work"}, "depressive symptoms": {"test_system": "depressive symptoms", "settings": "195 patients, 400 mg intramuscular for 15 days; cited from earlier work"}, "[2]": {"settings": "infusions of 800 mg, placebo-controlled crossover; cited from earlier work"}, "Major Depression": {"test_system": "Major Depression", "experiment": "Child case studies: oral SAM-e in Major Depression (Children's Depression Inventory, clinical report)", "assay_type": "in vivo, human", "source_text": "Two girls were brought in for a consult by a pediatrician and their spouse, a nutritionist. Both parents had studied SAM-e, and preferred “a trial” before traditional anti-depressants.\nCase 1. A child (34 kg.) developed increased irritability, boredom, eccentric crying, withdrawal, decreased appetite, middle insomnia, new school performance problems and sadness. They began to discuss death themes and became preoccupied with heaven, despite no new exposures to these topics. They met DSM-IV TR criteria for Major Depression, had no significant stressors in their life, and on the Children's Depression Inventory (CDI) scored a 34.\nThey were placed on a 200 mg SAM-e enteric-coated tablet each morning, before eating for a week. Subsequently, the dose was raised to 400 mg. […] Improvement began after 4 days on 400 mg. At three weeks, it was increased to 600 mg a day, with rapid and complete resolution of their depressive symptoms in 2 days. […] Their CDI fell to a 4. They have been on this dose for over 6 months.\nCase 2. child one (24 kg.) developed new problems with crying, sadness, decreased play, and an inability to be consoled. They made new negative identity comments, i.e., “I'm no good Mommy.” The child was well liked by adults and peers, but felt “no one liked them,” They also began saying they “hated school” even though they were in the top ⅓rd of their class. Their symptoms began 4-5 months after their sibling's MD began. They met DSM-IV TR criteria for Major Depression and on the Children's Depression Inventory scored 29.\nTheir CDI decreased to 6 and 7. After 3 months, they were “a little sad like before” per their parent, and was increased to 200 mg each am and afternoon with a CDI of 6. They have remained on this dose for over 6 months.\nCase 3. A person (86 kg.), unrelated to the girls described above, was diagnosed with Major Depression and Oppositional Defiant Disorder based on DSM-IV TR criteria from a clinical interview with parents and patient. They refused diagnostic scales. Their parents reported a 1½ year history of irritability, boredom, reactivity, decreased interest in all activities but computer games, sadness, excess sleep, fatigue, hopelessness, and trouble concentrating. […] Extensive laboratory testing and family doctor physical exam were negative.\nTheir mood and function improved to their baseline over 1-2 weeks according to parents, teacher and psychiatrist. Yet they had residual oppositionality. After 2-3 months the youth stopped their SAM-e due to “being sick of all the pills.” They had been taking […] tablets daily. They relapsed over the course of 3 weeks to “½” […] initial baseline depression per patient and parents. Again, they refused quantitative depression scales. Behaviorally, they stopped returning calls, became bored again, and had decreased homework performance with no identifiable new stressors. Restoring the SAM-e to three 400 mg tablets—800 mg per am and 400 after school—restored them to baseline in 5-8 days from parent report confirmed with diagnostic interview. They have remained on this dosing for approximately 22 weeks."}, "[3]": {"test_system": "patients with Major Depression", "settings": "cited from earlier work"}}, "note": "“And” between values parts separate entries of the source, which are not always exact repeats. Equal entries are not always repeated. Where two headings read alike, the source gives them in different places.", "data": [{"smiles": "C[S+](CC[C@H](N)C(=O)O)C[C@H]1O[C@@H](n2cnc3c(N)ncnc32)[C@H](O)[C@@H]1O", "note": "(some centres unmarked) [SAM-e, S-adenosyl methionine]", "values": [{"measurement": "efficacy in major depressive disorder", "setting": "[1]; 13 trials vs placebo, 19 trials vs tricyclic antidepressants, more than 1,400 patients", "result": "effective"}, {"measurement": "efficacy in major depression versus placebo and tricyclics", "setting": "[1]; intravenous and intramuscular preparations, 14 double-blind European studies", "result": "more effective than placebo and comparable to imipramine, amitriptyline and clomipramine"}, {"measurement": "effect on depressive symptoms", "setting": "depressive symptoms", "result": "remission on both day 7 and 15"}, {"measurement": "EEG / ERP antidepressant effects", "setting": "[2]", "result": "effects greater than placebo"}, {"measurement": "response over 3 weeks", "setting": "Major Depression; Case 1, oral 400 mg", "result": "modest improvement"}, {"measurement": "time until improvement began", "setting": "Major Depression; Case 1, oral 400 mg", "result": 4, "unit": "days"}, {"measurement": "side effects", "setting": "Major Depression; Case 1, oral 600 mg a day", "result": "no signs of mania, anxiety, insomnia, diarrhea, abdominal pain or nausea"}, {"measurement": "time to complete resolution of depressive symptoms", "setting": "Major Depression; Case 1, oral 600 mg a day", "result": 2, "unit": "days"}, {"measurement": "Children's Depression Inventory (CDI) on treatment", "setting": "Major Depression; Case 1, oral 600 mg a day, CDI before treatment 34", "result": 4}, {"measurement": "time to signs of improvement", "setting": "Major Depression; Case 2 (person one), oral 200 mg", "result": 2, "unit": "days"}, {"measurement": "side effects", "setting": "Major Depression; Case 2, oral 200 mg", "result": "no side effects"}, {"measurement": "time until at baseline", "setting": "Major Depression; Case 2, oral 200 mg", "result": 11, "unit": "days"}, {"measurement": "Children's Depression Inventory (CDI) on treatment", "setting": "Major Depression; Case 2, oral 200 mg each am and afternoon, after 3 months", "result": 6}, {"measurement": "Children's Depression Inventory (CDI) on treatment", "setting": "Major Depression; Case 2, oral 200 mg, CDI before treatment 29", "result": "6 and 7"}, {"measurement": "time until restored to baseline after restart", "setting": "Major Depression; Case 3, oral 800 mg per am and 400 after school", "result": "5 to 8", "unit": "days"}, {"measurement": "side effects after dose reduction", "setting": "Major Depression; Case 3, oral 1400 mg", "result": "loss of both side effects"}, {"measurement": "time until mood and function improved to baseline", "setting": "Major Depression; Case 3, oral 1400 mg", "result": "1-2 weeks"}, {"measurement": "side effects", "setting": "Major Depression; Case 3, oral 1800 mg", "result": "slight tremor and slight anxiety"}, {"measurement": "time course of relapse after stopping SAM-e", "setting": "Major Depression; Case 3, relapse to \"½\" initial baseline depression", "result": 3, "unit": "weeks"}, {"measurement": "self-reported effect on depression", "setting": "Major Depression; both parents of Cases 1 and 2, 1200-1400 mg per day", "result": "full remission of their depression"}, {"measurement": "efficacy compared with imipramine", "setting": "[3]; SAM-e intramuscular 400 mg/d vs. oral IMI 150 mg/d, 4 weeks", "result": "did not differ significantly on any efficacy measure"}, {"measurement": "tolerability compared with imipramine", "setting": "[3]; both studies", "result": "better tolerated than IMI"}, {"measurement": "efficacy compared with imipramine", "setting": "[3]; intramuscular (400 mg) and oral SAM-e (1600 mg, 6 weeks) in adults", "result": "comparable to 150 mg of imipramine (IMI)"}]}]}
